Measurements published in US8362201B2 (priority 2000, dated 2013).

How the values were obtained:
[1] = system: whole-cell calcium channel currents in isolated cockroach neurons; settings: 0.1 µM; cited from earlier work
[2] = system: mouse sensory neuron ICa; format: cell-based
[3] = system: bee brain calcium channel (ICa); format: cell-based, Apis mellifera
[4] = system: insect versus vertebrate calcium channels

| Substance | inhibition of whole-cell calcium channel currents [1] | maximum ICa inhibition [2] | EC50 ([2]; read-out: EC50 for inhibition of a component of ICa) | concentration for maximum inhibition of ICa [3] | EC50 ([3]; read-out: EC50 for inhibition of ICa) | preference for insect versus vertebrate calcium channels [4] |
| --- | --- | --- | --- | --- | --- | --- |
| omega-atracotoxin-Hv1a [ω-ACTX-Hv1a] | 25±10% |  |  |  |  |  |
| ω-agatoxin-IVA (KKKCIAKDYGRCKWGGTPCCRGRGCICSIMGTNCECKPRLIMEGLGLA) |  | ~40% | ~20 nM | > 100 nM | 10 nM | 2 fold |
